Measurements taken from ChEMBL document CHEMBL1201862, “PubChem BioAssay data set” (2004).
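The compound was tested at five concentrations on cells cultured in 96-well plates, with a 48-hour exposure period. GI50 = concentration required for 50% inhibition of growth.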 Activity calls are given as the source filed them. No stated cut-off is given here; in the data, active = GI50 up to about 1.1 µM and inactive = higher.

Tests used:
Experiment in all cases: growth of human tumour cells (NCI), 48 h
[1] = test system: OVCAR-3
[2] = test system: ACHN
[3] = test system: LXFL 529
[4] = test system: SK-MEL-28
[5] = test system: SK-OV-3
[6] = test system: HOP-62
[7] = test system: NCI-H460
[8] = test system: HCT-15
[9] = test system: KM-20L2
[10] = test system: OVCAR-8
[11] = test system: DMS-114
[12] = test system: SNB-78
[13] = test system: TK-10
[14] = test system: SK-MEL-2
[15] = test system: SNB-19
[16] = test system: 786-0
[17] = test system: SK-MEL-5
[18] = test system: SW-620
[19] = test system: CAKI-1
[20] = test system: SF-539
[21] = test system: SF-295
[22] = test system: DLD-1
[23] = test system: M14
[24] = test system: CCRF-CEM
[25] = test system: NCI-H522
[26] = test system: HCT-116
[27] = test system: UO-31
[28] = test system: RPMI-8226
[29] = test system: MOLT-4
[30] = test system: U-251
[31] = test system: HOP-92
[32] = test system: NCI-H23
[33] = test system: DMS-273
[34] = test system: A498
[35] = test system: IGROV-1
[36] = test system: Malme-3M
[37] = test system: RXF 393
[38] = test system: COLO 205
[39] = test system: RXF 631
[40] = test system: LOX IMVI
[41] = test system: SN12C
[42] = test system: SF-268
[43] = test system: HCC 2998
[44] = test system: OVCAR-5
[45] = test system: A549
[46] = test system: K562
[47] = test system: HL-60
[48] = test system: KM12
[49] = test system: HT-29
[50] = test system: UACC-257
[51] = test system: OVCAR-4
[52] = test system: M19-MEL
[53] = test system: UACC-62
[54] = test system: SR
[55] = test system: EKVX
[56] = test system: SNB-75
[57] = test system: HOP-18
[58] = test system: NCI-H226

## CCOC(=O)N1C/C(=C\c2ccc(N(C)C)cc2)C(=O)/C(=C/c2ccc(N(C)C)cc2)C1
[1]
  GI50: > 100 µM (inactive)
[2]
  GI50: > 100 µM (inactive)
[3]
  GI50: > 100 µM (inactive)
[4]
  GI50: > 100 µM (inactive)
[5]
  GI50: > 100 µM (inactive)
[6]
  GI50: > 100 µM (inactive)
[7]
  GI50: > 100 µM (inactive)
[8]
  GI50: > 100 µM
[9]
  GI50: > 100 µM (inactive)
[10]
  GI50: > 100 µM (inactive)
[11]
  GI50: > 100 µM (inactive)
[12]
  GI50: > 100 µM (inactive)
[13]
  GI50: > 100 µM (inactive)
[14]
  GI50: > 100 µM (inactive)
[15]
  GI50: > 100 µM (inactive)
[16]
  GI50: > 100 µM (inactive)
[17]
  GI50: > 100 µM (inactive)
[18]
  GI50: > 100 µM (inactive)
[19]
  GI50: > 100 µM (inactive)
[20]
  GI50: > 100 µM (inactive)
[21]
  GI50: > 100 µM (inactive)
[22]
  GI50: > 100 µM (inactive)
[23]
  GI50: > 100 µM (inactive)
[24]
  GI50: > 100 µM (inactive)
[25]
  GI50: > 100 µM (inactive)
[26]
  GI50: > 100 µM (inactive)
[27]
  GI50: > 100 µM (inactive)
[28]
  GI50: > 100 µM (inactive)
[29]
  GI50: > 100 µM (inactive)
[30]
  GI50: > 100 µM (inactive)
[31]
  GI50: > 100 µM (inactive)
[32]
  GI50: > 100 µM (inactive)
[33]
  GI50: > 100 µM (inactive)
[34]
  GI50: > 100 µM (inactive)
[35]
  GI50: > 100 µM (inactive)
[36]
  GI50: > 100 µM (inactive)
[37]
  GI50: > 100 µM (inactive)
[38]
  GI50: > 100 µM (inactive)
[39]
  GI50: > 100 µM (inactive)
[40]
  GI50: > 100 µM (inactive)
[41]
  GI50: > 100 µM (inactive)
[42]
  GI50: > 100 µM (inactive)
[43]
  GI50: > 100 µM (inactive)
[44]
  GI50: > 100 µM (inactive)
[45]
  GI50: > 100 µM (inactive)
[46]
  GI50: > 100 µM (inactive)
[47]
  GI50: > 100 µM (inactive)
[48]
  GI50: > 100 µM (inactive)
[49]
  GI50: > 100 µM (inactive)
[50]
  GI50: > 100 µM (inactive)
[51]
  GI50: > 100 µM (inactive)
[52]
  GI50: > 100 µM (inactive)
[53]
  GI50: > 100 µM (inactive)
[54]
  GI50: > 100 µM (inactive)
[55]
  GI50: > 100 µM (inactive)
[56]
  GI50: > 100 µM (inactive)
[57]
  GI50: > 100 µM (inactive)

## O=C1/C(=C/c2cccc([N+](=O)[O-])c2)COc2ccccc21
[1]
  GI50: 2.79 µM (inactive)
[2]
  GI50: 5.13 µM (inactive)
[3]
  GI50: 2.43 µM (inactive)
[4]
  GI50: 2.92 µM (inactive)
[5]
  GI50: 30.2 µM (inactive)
[58]
  GI50: 3.86 µM (inactive)
[6]
  GI50: 11 µM (inactive)
[7]
  GI50: 15.6 µM (inactive)
[8]
  GI50: 1.55 µM
[9]
  GI50: 4.99 µM (inactive)
[10]
  GI50: 2.84 µM (inactive)
[11]
  GI50: 2.84 µM (inactive)
[12]
  GI50: 6.53 µM (inactive)
[13]
  GI50: 23 µM (inactive)
[14]
  GI50: 6.1 µM (inactive)
[15]
  GI50: 2.82 µM (inactive)
[16]
  GI50: 1.63 µM (inactive)
[17]
  GI50: 2.32 µM (inactive)
[18]
  GI50: 1.11 µM (active)
[19]
  GI50: 5.33 µM (inactive)
[20]
  GI50: 4.42 µM (inactive)
[21]
  GI50: 11.2 µM (inactive)
[22]
  GI50: 2.94 µM (inactive)
[23]
  GI50: 1.83 µM (inactive)
[24]
  GI50: 1.53 µM (inactive)
[25]
  GI50: 1.67 µM (inactive)
[26]
  GI50: 1.76 µM (inactive)
[27]
  GI50: 15.2 µM (inactive)
[28]
  GI50: 1.01 µM (active)
[29]
  GI50: 2.31 µM (inactive)
[30]
  GI50: 2.62 µM (inactive)
[31]
  GI50: 19.1 µM (inactive)
[32]
  GI50: 6.76 µM (inactive)
[33]
  GI50: 1.95 µM (inactive)
[34]
  GI50: 40.8 µM (inactive)
[35]
  GI50: 7.85 µM (inactive)
[36]
  GI50: 16.1 µM (inactive)
[37]
  GI50: 4.65 µM (inactive)
[38]
  GI50: > 42.2 µM (inactive)
[39]
  GI50: 6 µM (inactive)
[40]
  GI50: 1.8 µM (inactive)
[42]
  GI50: 8.99 µM (inactive)
[44]
  GI50: > 35 µM (inactive)
[45]
  GI50: 41.2 µM (inactive)
[46]
  GI50: 1.46 µM (inactive)
[47]
  GI50: 2.08 µM (inactive)
[48]
  GI50: 2.5 µM (inactive)
[49]
  GI50: 2.36 µM (inactive)
[50]
  GI50: 7.69 µM (inactive)
[51]
  GI50: 2.49 µM (inactive)
[52]
  GI50: 2.32 µM (inactive)
[53]
  GI50: 1.67 µM (inactive)
[55]
  GI50: 25.6 µM (inactive)
[56]
  GI50: 13.1 µM (inactive)
[57]
  GI50: 4.55 µM (inactive)
